Reference: US20240299294A1, “TARGETED DELIVERY OF EFFECTIVE THERAPEUTIC MEDICATIONS TO THE RESPIRATORY TRACT” (Amphastar Pharmaceuticals, Inc., priority 2020, published 2024)
Where two headings read alike, the source gives them in different places.

Legend:
[1] = Dose range and dose response study of HCQ for lung delivery (Example 9); details: mouse, in vivo, 16 sprays
[2] = Estimation of HCQ concentration in alveolar lining fluid (ALF) (Example 11); details: mouse, in vivo, 10 sprays
[3] = in vivo
[4] = in vivo; design: species or system mice; details: mouse
Description: The breathing tank 400 is a specially designed stainless steel breathing tank, which is used for mice to breathe in aerosolized formulations of the medications described earlier in the Examples. At the start of each treatment session, a specific number of sprays of a medication formulation were sprayed into the pre-cleaned tank. To ensure consistent concentration of test article, a stirring fan installed inside the tank was started at a speed of 400 rpm before the first spray of the test articles (such as, the medications). Thirty seconds after the last spray, eight mice were mounted to the inhalation chamber to breathe in aerosolized formulations of the medications from the breathing tank for a specified duration. Animals were then taken off the breathing tank (defined as the “0” time point post dosing).
The purpose of the study is to evaluate the lung delivery characteristics of single dose HCQ inhalation in a mouse model. […] Thirty seconds after the last spray (t=0 minute), eight mice were mounted to the inhalation chamber to breathe the medication aerosol from the breathing tank for 10 minutes.
Mice were euthanized and mice lung samples were collected and homogenated at eight time points of 10′, 30′, 45′, 1 h, 2 h, 3 h, 4 h and 6 h after treatment. Four mice were used at each time point and in total 32 mice were studied.

[5] = Cell viability (MTT) assay, CC50, Study APS002-1; format: cell-based; details: African green monkey, Vero E6-TMPRSS2 cells
Description: In the antiviral cell assay, Vero E6-TMPRSS2 cells were seeded into 96 well plates and grown to 80-90% confluency. Compounds were prepared using an 8-point, half-log (˜3-fold) dilution starting at 100 μM. Vehicle (Placebo) and positive control (Remdesivir) wells were included to control for any influence on cell viability. After one hour, compounds were removed and virus was added at a single concentration (100× Median Tissue Culture Infectious Dose (TCID50)), together with equivalent serial dilutions of test compound. Following infection/treatment, cells were incubated for a further hour. After infection, virus/treatment was removed and an overlay medium was added to the cells, together with equivalent serial dilutions of test compound. Cells were visually inspected daily for the appearance of any cytopathic effect (“CPE”). A cell viability (MTT) assay was performed once CPE was complete.

[6] = cited from earlier work
[7] = in vivo; details: mouse
Description: For the single-dose study, 48 mice were treated with the highest dose level (16 sprays) of Formulation 11. Twelve time points were measured: baseline (within one hour before dosing), 5 min, 15 min, 30 min, 1 h, 2 h, 3 h, 4 h, 6 h, 9 h, 24 h and 48 h post dosing. Each animal was sampled twice at two different time points and four mice per gender were used at each time point.

[8] = test system: SARS-CoV-2 virus; experiment: microbe, parasite or virus in culture; format: cell-based; details: Severe acute respiratory syndrome coronavirus 2, VeroE6/TMPRSS2
[9] = in vivo; details: mouse; remark: listed apart in the source
[10] = test system: mice; experiment: 5-day repeated-dose local and systemic toxicity study of HCQ inhalation (Example 12); format: in vivo
Description: A total of 200 mice were used, in which 40 mice (male:female=1:1) were assigned to each study arm.
Mice were dosed four sessions a day for 5 days, with 3 hours interval between two consecutive treatment sessions. Each session was a 6-minute nose-only inhalation treatment after spraying the designated articles (4, 8 or 16 sprays) into the 21.5 L breathing tank.
After the treatment, 24 mice (male:female=1:1) were sacrificed on Day 6 (or Day-1 post completion of treatment, PCT Day-1) for acute toxicity evaluation and 16 mice (male:female=1:1) were sacrificed on Day 19 (PCT Day-14) for recovery evaluation.
Standard local toxicity evaluation items included: (1) general safety including in-life daily observation and body weight measurement; (2) gross macroscopic observation and organ weight measurement; (3) clinical pathology including hematology and blood chemistry tests; and (4) microscopic histopathological examination.

Q: For `CCN(CCO)CCCC(C)Nc1ccnc2cc(Cl)ccc12` (stereo not drawn) [HCQ, Hydroxychloroquine], which concentration at 0.083 h ([1]; female) is on record?
A: 8820 ng/g

Q: And the concentration at 0.25 h ([1]; female)?
A: 4510 ng/g

Q: And the concentration at 0.5 h ([1]; female)?
A: 3560 ng/g

Q: What about the concentration at 1 h ([1]; female) of the same compound?
A: 4040 ng/g

Q: And the concentration at 3 h ([1]; female)?
A: 3250 ng/g

Q: What about the concentration at 24 h ([1]; female) of the same compound?
A: 339 ng/g

Q: What about the concentration at 0.083 h ([1]; male) of the same compound?
A: 9510 ng/g

Q: What about the concentration at 0.25 h ([1]; male) of the same compound?
A: 4740 ng/g

Q: What about the concentration at 0.5 h ([1]; male) of the same compound?
A: 4680 ng/g

Q: And the concentration at 1 h ([1]; male)?
A: 3660 ng/g

Q: What about the concentration at 3 h ([1]; male) of the same compound?
A: 3300 ng/g

Q: What about the concentration at 24 h ([1]; male) of the same compound?
A: 277 ng/g

Q: And the concentration at 10 min [2]?
A: 476 µM

Q: What about the concentration at 6 h [2] of the same compound?
A: 188 µM

Q: What about the “time the delivered medication can be detected in the mouse lungs” value [3] of the same compound?
A: no less than 24 h

Q: And the “appearance of mice after the treatment” value [4]?
A: appeared healthy and normal

Q: And the half-life ([4]; inhaled or intranasal)?
A: 4.6 h

Q: What about the CC50 [5] of the same compound?
A: > 100 µM

Q: And the half-life ([6]; HCQ oral tablet delivery)?
A: 123.5 days

Q: What about the “share of oral tablet dose distributed to the plasma and ultimately reaching the lungs and alveoli” value ([6]; in vivo, po) of the same compound?
A: about 0.07%

Q: And the half-life ([7]; both)?
A: ≥ 4 h

Q: And the Kp ([7]; both, in vivo, 16 sprays)?
A: ≥ 25

Q: And the Kp at 0.083 h ([7]; female, in vivo, 16 sprays)?
A: 66.3

Q: What about the Kp at 0.25 h ([7]; female, in vivo, 16 sprays) of the same compound?
A: 50.6

Q: And the Kp at 0.5 h ([7]; female, in vivo, 16 sprays)?
A: 38

Q: And the Kp at 1 h ([7]; female, in vivo, 16 sprays)?
A: 100

Q: And the Kp at 3 h ([7]; female, in vivo, 16 sprays)?
A: 193

Q: And the Kp at 24 h ([7]; female, in vivo, 16 sprays)?
A: 26.9

Q: What about the concentration at 0.083 h ([7]; female, in vivo, 16 sprays) of the same compound?
A: 133 ng/mL

Q: And the concentration at 0.25 h ([7]; female, in vivo, 16 sprays)?
A: 89.2 ng/mL

Q: What about the concentration at 0.5 h ([7]; female, in vivo, 16 sprays) of the same compound?
A: 93.6 ng/mL

Q: And the concentration at 1 h ([7]; female, in vivo, 16 sprays)?
A: 40.2 ng/mL

Q: And the concentration at 3 h ([7]; female, in vivo, 16 sprays)?
A: 16.8 ng/mL

Q: And the concentration at 24 h ([7]; female, in vivo, 16 sprays)?
A: 12.6 ng/mL

Q: And the Kp at 0.083 h ([7]; male, in vivo, 16 sprays)?
A: 58.4

Q: And the Kp at 0.25 h ([7]; male, in vivo, 16 sprays)?
A: 51.5

Q: What about the Kp at 0.5 h ([7]; male, in vivo, 16 sprays) of the same compound?
A: 85.2

Q: And the Kp at 1 h ([7]; male, in vivo, 16 sprays)?
A: 90.9

Q: And the Kp at 3 h ([7]; male, in vivo, 16 sprays)?
A: 250

Q: And the Kp at 24 h ([7]; male, in vivo, 16 sprays)?
A: 56.5

Q: What about the concentration at 0.083 h ([7]; male, in vivo, 16 sprays) of the same compound?
A: 163 ng/mL

Q: And the concentration at 0.25 h ([7]; male, in vivo, 16 sprays)?
A: 92 ng/mL

Q: What about the concentration at 0.5 h ([7]; male, in vivo, 16 sprays) of the same compound?
A: 55 ng/mL

Q: What about the concentration at 1 h ([7]; male, in vivo, 16 sprays) of the same compound?
A: 40.2 ng/mL

Q: And the concentration at 3 h ([7]; male, in vivo, 16 sprays)?
A: 13.2 ng/mL

Q: And the concentration at 24 h ([7]; male, in vivo, 16 sprays)?
A: 4.9 ng/mL

Q: And the EC50 ([8]; Vero E6-TMPRSS2 cells, virus 100× TCID50, read-out: EC50)?
A: 11.3 µM

Q: And the half-life ([9]; both)?
A: 6 to 8 h

Q: What about the half-life [9] of the same compound?
A: 4.6 to 7.8 h

Q: And the “local toxicity, nasal turbinates and larynx” value ([10]; Formulation 11, PCT-Day 1)?
A: low incidence of minor changes

Q: And the “histopathological finding in the thymus” value ([10]; mouse, in vivo)?
A: minimal to mild tingible body macrophages

Q: What about the “local toxicity, histopathological examination of six organs” value ([10]; mouse, in vivo) of the same compound?
A: No dose related abnormalities

Q: For `CCC(CC)COC(=O)[C@H](C)N[P@](=O)(OC[C@H]1O[C@@](C#N)(c2ccc3c(N)ncnn23)[C@H](O)[C@@H]1O)Oc1ccccc1` [Remdesivir], which CC50 [5] is on record?
A: > 20 µM

Q: And the EC50 [8]?
A: 2.35 µM
